The values below come from US20230227405A1, “5-OXOPYRROLIDINE-3-CARBOXAMIDES AS NAV1.8 INHIBITORS” (MERCK SHARP & DOHME CORP., priority 2020, published 2023).

Molecules are shown by their SMILES.

The target in this assay is T1, human Nav1.8 (Homo sapiens, UniProt Q9Y5Y9).
T1 construct: expressed in transfected cells
T1 sequence (Q9Y5Y9 whole entry): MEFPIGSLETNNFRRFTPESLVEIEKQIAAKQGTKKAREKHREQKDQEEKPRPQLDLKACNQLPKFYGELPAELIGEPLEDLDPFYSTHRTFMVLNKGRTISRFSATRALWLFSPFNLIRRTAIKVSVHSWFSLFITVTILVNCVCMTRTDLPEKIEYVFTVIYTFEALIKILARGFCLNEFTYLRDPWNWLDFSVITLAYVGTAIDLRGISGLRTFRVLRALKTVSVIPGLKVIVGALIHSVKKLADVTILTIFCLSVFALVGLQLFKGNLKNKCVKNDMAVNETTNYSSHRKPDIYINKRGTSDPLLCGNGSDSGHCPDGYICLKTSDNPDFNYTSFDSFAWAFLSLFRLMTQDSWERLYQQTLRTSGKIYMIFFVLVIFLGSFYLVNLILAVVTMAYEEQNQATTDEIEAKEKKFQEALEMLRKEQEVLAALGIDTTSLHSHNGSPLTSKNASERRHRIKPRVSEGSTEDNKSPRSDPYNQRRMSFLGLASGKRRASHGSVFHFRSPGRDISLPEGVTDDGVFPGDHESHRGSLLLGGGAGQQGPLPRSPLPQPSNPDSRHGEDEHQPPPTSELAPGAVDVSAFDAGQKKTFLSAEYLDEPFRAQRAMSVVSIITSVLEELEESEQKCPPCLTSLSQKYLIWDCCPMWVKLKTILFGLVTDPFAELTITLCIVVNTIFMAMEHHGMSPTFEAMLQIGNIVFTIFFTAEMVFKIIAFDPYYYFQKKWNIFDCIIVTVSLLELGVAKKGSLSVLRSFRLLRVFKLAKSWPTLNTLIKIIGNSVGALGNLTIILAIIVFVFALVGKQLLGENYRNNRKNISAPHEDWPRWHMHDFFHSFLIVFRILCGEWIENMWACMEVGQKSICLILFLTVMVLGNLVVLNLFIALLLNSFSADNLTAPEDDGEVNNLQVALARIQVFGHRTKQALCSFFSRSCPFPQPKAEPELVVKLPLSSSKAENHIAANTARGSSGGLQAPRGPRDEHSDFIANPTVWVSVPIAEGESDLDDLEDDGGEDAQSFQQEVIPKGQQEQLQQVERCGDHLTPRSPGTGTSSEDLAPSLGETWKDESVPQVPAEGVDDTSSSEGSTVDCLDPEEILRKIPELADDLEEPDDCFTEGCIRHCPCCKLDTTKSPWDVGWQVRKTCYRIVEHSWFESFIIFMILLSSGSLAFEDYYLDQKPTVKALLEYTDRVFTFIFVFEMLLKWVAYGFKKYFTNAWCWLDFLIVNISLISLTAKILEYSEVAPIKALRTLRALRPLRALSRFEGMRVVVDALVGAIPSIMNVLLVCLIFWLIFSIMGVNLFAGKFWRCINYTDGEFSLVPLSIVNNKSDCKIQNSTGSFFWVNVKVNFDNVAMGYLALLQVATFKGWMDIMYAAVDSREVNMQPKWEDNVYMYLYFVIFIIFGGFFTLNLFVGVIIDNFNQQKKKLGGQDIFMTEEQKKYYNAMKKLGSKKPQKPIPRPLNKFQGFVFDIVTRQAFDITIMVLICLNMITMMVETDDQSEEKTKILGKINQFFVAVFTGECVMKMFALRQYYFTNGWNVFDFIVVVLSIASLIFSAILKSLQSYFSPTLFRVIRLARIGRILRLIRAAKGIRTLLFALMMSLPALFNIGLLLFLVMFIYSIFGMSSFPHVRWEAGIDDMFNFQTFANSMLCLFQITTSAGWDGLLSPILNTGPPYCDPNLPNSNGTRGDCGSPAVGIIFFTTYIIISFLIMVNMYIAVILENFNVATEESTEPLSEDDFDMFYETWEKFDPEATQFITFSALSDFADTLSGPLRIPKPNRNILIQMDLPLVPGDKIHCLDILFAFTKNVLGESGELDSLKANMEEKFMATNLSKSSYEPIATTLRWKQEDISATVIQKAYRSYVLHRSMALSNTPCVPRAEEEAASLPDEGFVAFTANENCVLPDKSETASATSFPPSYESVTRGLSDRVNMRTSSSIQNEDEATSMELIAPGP
The assay is described as follows: Qube® automated patch-clamp assay, Nav1.8. Type of assay: cell-based. The following applies: human Nav1.8 stably expressed in HEK 293 cells; whole-cell voltage clamp, room temperature; read-out: IC50 values (nM) for Examples in the Nav1.8 Qube® Assay. On the procedure: Compounds were tested on human Nav1.8 and Nav1.5 channels stably expressed in human embryo kidney (HEK) 293 cells. Sodium current measurements on Qube® were conducted as follows: automated 384-well patch-clamp assays on the Qube® platform (Sophion Biosciences) were used to measure the inhibition of sodium flow through human Nav1.8 and Nav1.5 channels. Whole-cell voltage-clamp recordings were performed in QChips® (Sophion Biosciences) at room temperature. Nav1.8 current measurements on Qube® were obtained as follows: Nav1.8 currents were elicited with a 10 second 1 Hertz (Hz) pulse train from a holding potential of −90 millivolts (mV), delivered to the cells once per minute in the control condition (DMSO only) and after compound addition. The 1 hertz pulse train stimulation consisted of ten test pulses to 10 millivolt (mV) for 20 milliseconds (ms), each of which was followed by a 980 millisecond repolarization to −67 millivolts. At the end of the 10 second pulse train stimulation, a 5 second hyperpolarization step to −100 millivolt (mV) was used to recover Nav1.8 from fast inactivation. The peak currents elicited by the 1st and 10th test pulses were used to determine IC50 values for resting inhibition and inactivated state inhibition. Nav1.5 current measurements on Qube® were obtained as follows: Nav1.5 currents were elicited with a 20 second 3 Hertz pulse train in the control condition (DMSO only) and after compound addition. The pulse train consisted of sixty 20 millisecond test pulses to 0 millivolt from a holding potential of −80 millivolt (mV). The average peak currents elicited by the last 3 test pulses were used to determine IC50 values for Nav1.5 inhibition.
The following buffers were used for the Qube® recordings: External buffer for Nav1.8 Qube® recording: 150 NaCl, 2 CaCl2, 5 KCl, 1 Mg Cl2, 10 HEPES, 12 Dextrose; External buffer for Qube® Nav1.5 recording: 120 N-Methyl-D-Glucamine, 40 NaCl, 1 KCl, 2.7 CaCl2, 5 HEPES, 0.5 MgCl2; and Internal buffer for Qube® recording: 120 CsF, 30 CsCl, 10 EGTA, 5 HEPES, 5 NaF, 2 MgCl2.
For all Qube® experiments offline analysis was used to determine percent inhibition as a function of drug concentration. IC50 values were determined by fitting to the Hill equation.
A general note: In patch-clamp work, channel activity is measured electrically.
In general, IC50 refers to the point on the concentration scale where inhibition reaches its midpoint. `O=C1C[C@H](C(=O)NC(c2ccc(F)c(Cl)c2)c2ccc(F)c(Cl)c2)CN1` [Example 18, (S)-N-(bis(3-chloro-4-fluorophenyl)methyl)-5-oxopyrrolidine-3-carboxamide]: the half-maximal inhibitory concentration (IC50) was determined as 5.3 nM. In the case of `O=C1C[C@H](C(=O)NC(c2ccc(Cl)cc2)c2ccc(F)c(C(F)(F)F)c2)CN1` (single isomer, unassigned) [Example 11A, (S)-N-((R or S)-(4-chlorophenyl)(4-fluoro-3-(trifluoromethyl)phenyl)methyl)-5-oxopyrrolidine-3-carboxamide] it was 2.6 nM; in that of `O=C1C[C@H](C(=O)NC(c2ccc(F)c(C(F)(F)F)c2)c2ccc(F)c(Cl)c2F)CN1` (stereo partly drawn) [Example 24, (3S)-N-((3-chloro-2,4-difluorophenyl)(4-fluoro-3-(trifluoromethyl)phenyl)methyl)-5-oxopyrrolidine-3-carboxamide], 5.5 nM; in that of `O=C1C[C@H](C(=O)NC(c2ccc(C(F)(F)F)cc2)c2ccc(C(F)(F)F)cc2)CN1` [Example 9, (S)-N-(bis(4-(trifluoromethyl)phenyl)methyl)-5-oxopyrrolidine-3-carboxamide], 28 nM.

For the compound `O=C1C[C@H](C(=O)NC(c2ccc(F)c(Cl)c2)c2ccc(Cl)c(C(F)(F)F)n2)CN1` (single isomer, unassigned) [Example 20B, (S)-N-((R or S)-(3-chloro-4-fluorophenyl)(5-chloro-6-(trifluoromethyl)-pyridin-2-yl)methyl)-5-oxopyrrolidine-3-carboxamide], the IC50 came out at 2.9 nM. The value for `O=C1C[C@H](C(=O)NC(CCc2ccccc2)c2cccc(Cl)c2)CN1` (stereo partly drawn) [Example 26, (3S)-N-(1-(3-chlorophenyl)-3-phenylpropyl)-5-oxopyrrolidine-3-carboxamideNa] was 435 nM.

With `CC1C(=O)NCC1C(=O)NC(c1ccc(Cl)cc1)c1ccc(Cl)cc1` (single isomer, unassigned) [Example 27A, (3(R or S),4(R or S)—N-(bis(4-chlorophenyl)methyl)-4-methyl-5-oxopyrrolidine-3-carboxamide], the concentration for half-maximal inhibition (IC50) is 7460 nM. The value for `O=C1C[C@H](C(=O)NC(c2ccc(Cl)cc2)c2cc(F)cc(C(F)(F)F)c2)CN1` (stereo partly drawn) [Example 7, (3S)-N-((4-chlorophenyl)(3-fluoro-5-(trifluoromethyl)phenyl)methyl)-5-oxopyrrolidine-3-carboxamide] was 186 nM; that for `CC1(C)CC(C(NC(=O)[C@@H]2CNC(=O)C2)c2ccc(F)c(Cl)c2F)C1` (single isomer, unassigned) [Example 21B, (S—N—((R or S)-(3-chloro-2,4-difluorophenyl)(3,3-dimethylcyclobutyl)methyl)-5-oxopyrrolidine-3-carboxamide] was 17 nM; that for `O=C1C[C@H](C(=O)NC(c2ccc(OC(F)(F)F)cc2)c2cccc(Cl)c2)CN1` (single isomer, unassigned) [Example 19A, (S)-N-((R or S)-(3-chlorophenyl)(4-(trifluoromethoxy)phenyl)methyl)-5-oxopyrrolidine-3-carboxamide] was 16 nM. `CC(C)c1ccc(C(NC(=O)[C@@H]2CNC(=O)C2)c2ccc(Cl)cc2)cc1` (stereo partly drawn) [Example 4, (3S)-N-((4-chlorophenyl)(4-isopropylphenyl)methyl)-5-oxopyrrolidine-3-carboxamide]: the IC50 is 108 nM.
